{
  "source": "paper PMC3871529",
  "about": "“At a Supra-Physiological Concentration, Human Sexual Hormones Act as Quorum-Sensing Inhibitors” (PLoS ONE, 2013)",
  "key": {"[1]": {"tested_on": "A. tumefaciens NT1(pZLR4) traG-lacZ reporter fusion", "assay": "QSI activity on A. tumefaciens AHL-bioindicator (traG-lacZ β-galactosidase)", "format": "cell-based, Agrobacterium tumefaciens", "conditions": "for QSI hit in library screening: second screening: compounds at 5 µg/ml, C8-HSL 10 nM, A. tumefaciens biosensor", "method": "Two bacterial QS-signal biosensors were used. Chromobacterium violaceum CV026 [41] was grown in Luria-Bertani modified (LBm) medium, in which the NaCl concentration was 5 g/l instead of 10 g/l. Agrobacterium tumefaciens NT1(pZLR4) was grown in AB minimal medium supplemented with mannitol (0.2%). After supplementation with appropriate AHL, each of the QS-biosensors expresses a reporting activity, which is the production of the pigment violacein in C. violaceum CV026 and that of β-galactosidase from the transcriptional fusion traG::lacZ in A. tumefaciens NT1(pZLR4).\nWhen the screening was performed, the chemical library of the Institut de Chimie des Substances Naturelles (ICSN, Gif-sur-Yvette, France) contained more than 3500 synthetic and natural compounds, which were individually dissolved in dimethylsulfoxide (DMSO) at 1mg/ml and stored in 96 microwell plates. A first screening was performed by mixing biosensor CV026 with the AHL hexanoylhomoserine lactone (C6-HSL) at 0.5 µM and the tested compounds at 50 µg/ml. Final volume was adjusted to 100 µl with a synthetic medium (10% LBm and 0.4% sucrose). After 24 hours of incubation at 30°C, the presence or absence of violacein pigment was quoted by visual reading. […] Final volume was adjusted to 100 µl by the addition of AB minimal medium supplemented with mannitol (0.2%) and TY medium (10%). After 4 hours of incubation at 30°C, β-galactosidase activity was measured in A. tumefaciens cultures as previously described. In the two screenings, 4-nitropyridine-N-oxide (4-NPO) was used as a QSI reference. […]"}, "[2]": {"tested_on": "Agrobacterium biosensor cells", "assay": "Minimal inhibitory concentration (MIC)", "format": "cell-based, Agrobacterium tumefaciens", "conditions": "10^5 CFU/ml, 36 h at 30°C", "method": "Aside from the effect of QSI on QS regulation, the toxicity of these compounds was tested on bacterial cells by measuring two parameters: the minimal inhibitory concentration (MIC) and minimal bactericidal concentration (MBC). MIC, which is the lowest concentration of QSI (µg/ml) inhibiting any visible culture after 36 h of incubation at 30°C, was estimated by culturing 10^5 CFU/ml of the Agrobacterium biosensor cells in the presence of different concentrations of the QSI. MBC, which is the lowest concentration of QSI (µg/ml) that results in a 99.9% reduction of the initial bacterial population (10^5 CFU/ml) after 36 h of incubation at 30°C in the presence of different concentrations of QSI, was estimated by plating 100 µL of the Agrobacterium cultures on agar LBm plates. After an incubation of 48 h at 30°C, CFU were counted and the MBC values were calculated."}, "[3]": {"molecular_target": "T1, LasR (Pseudomonas aeruginosa, UniProt P25084)", "T1 construct": "expressed in transfected cells; host or cells: Escherichia coli JLD271 carrying pAL105 (pSB401-derivative, lasR+ lasI::luxCDABE)", "T1 sequence (P25084 whole entry)": "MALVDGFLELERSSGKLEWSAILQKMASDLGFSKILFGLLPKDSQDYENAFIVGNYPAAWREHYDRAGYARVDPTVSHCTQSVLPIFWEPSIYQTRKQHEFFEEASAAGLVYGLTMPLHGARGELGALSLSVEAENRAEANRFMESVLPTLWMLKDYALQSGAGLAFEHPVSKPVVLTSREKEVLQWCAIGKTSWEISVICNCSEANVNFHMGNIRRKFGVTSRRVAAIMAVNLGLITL", "assay": "E. coli bioindicator expressing LasR (pAL105, lasI::luxCDABE luminescence)", "format": "cell-based", "conditions": "OC12-HSL 100 µM; QSIs at 0.1 mg/ml, naringenin and naringin at 0.5 mg/ml", "method": "We determined whether the AHL-binding transcriptional factors LasR and RhlR were impaired in their capacity to activate expression of the QS-regulated genes in the presence of various QSIs. This was achieved by using two E. coli bioindicator strains expressing either LasR or RhlR proteins and harboring an appropriate reporter lux operon for measuring their transcriptional activity in the presence of OC12-HSL at 100 µM and C4-HSL at 10 µM, respectively. Adding C4-HSL to the pAL101-bioindicator or OC12-HSL to the pAL105-bioindicator induced the expression of the reporter lux operon and the consequent production of luminescence. In contrast, only background levels of luminescence were detected in control strains harboring the plasmids pAL102 or pAL106, which lacks the rhlR or lasR gene, respectively.\nFigure 7 QSIs modulated activity of the AHL-sensors in P. aeruginosa. Luminescence of the reporting operon lux, expressed in relative light units (RLU/OD600), was measured in E. coli bioindicator strains harboring the LasR (A) and RhlR (B) AHL-sensing systems of P. aeruginosa in the presence of […]. The QSIs estradiol, estrone, estriol and hordenine were added at 0.1 mg/ml, while naringenin and naringin, added at 0.5 mg/ml, were used as QSI-reference and non-QSI reference, respectively. Each test (n = 6) was compared with the DMSO-condition using Student's t test. Asterisks indicate statistically different data (p value of ≤0.01).\nEscherichia coli JLD271 biosensor strains harboring LasR- and RhlR-based plasmids pAL105 and pAL101 and control plasmids pAL106 (LasR^-) and pAL102 (RhlR^−) (Table 1) were prepared according to Vandeputte et al.. Briefly, these strains were grown in LB medium supplemented with tetracycline (10 µg/ml) and chloramphenicol (25 µg/ml) for 24 h. Then 50-µl portions of the cultures were subcultured in 1 ml of LB medium (the starting OD600 ranged between 0.02 and 0.025 corresponding to 5.10^6 CFU) supplemented with 10 µl of DMSO (1% [vol/vol] final), 10 µl of naringenin or naringin dissolved in DMSO (2 mM, final concentration), or 10 µl of the molecule to be tested. To induce the expression of the lux operon, 0, 1, 10 or […] of C4-HSL was added to pAL101 and pAL102, while OC12-HSL was added to pAL105 and pAL106. After incubation for 2 h at 37°C with agitation (175 rpm), 200 µl of culture was transferred to 96-well OptiPlate-96 F plates from Perkin-Elmer, and the luminescence of each sample was measured by using a TopCount NXT device from Perkin-Elmer. The LasR(pAL106) and RhlR(pAL102) biosensors were used for background subtraction, and the OD600 values were measured to account for the differences in cell density. All experiments were performed in six replicates. The statistical significance of each test was evaluated by conducting Student's t tests using the GraphPad Prism software, and p values ≤0.05 were considered significant. Naringenin (4′,5,7-trihydroxyflavanone), naringin (4′,5,7-trihydroxyflavanone 7-rhamnoglucoside), the AHLs OC12-HSL and C4-HSL were purchased from Sigma-Aldrich and dissolved freshly in 100% DMSO before use. Tested QSIs were dissolved in 100% DMSO before use."}},
  "note": "Where two headings read alike, the source gives them in different places.",
  "data": [
    {"compound": "3-Hydroxy-13-methyl-6,7,8,9,11,12,13,14,15,17-decahydro-cyclopenta[a] phenanthren-16-one [Compound 729, reference compound]", "values": [
      {"measurement": "QSI hit in library screening", "setting": "[1]", "result": "hits"},
      {"measurement": "IC50", "setting": "[1]; β-galactosidase activity of Agrobacterium biosensor in presence of AHL (C8-HSL 10 nM), QSI 1.5 to 100 µg/ml", "result": 75, "unit": "µg/mL"},
      {"measurement": "MIC", "setting": "[2]", "result": ">100", "unit": "µg/mL"},
      {"measurement": "effect on LasR functionality (lux luminescence)", "setting": "[3]", "result": "significant impact"}
    ]},
    {"compound": "C[C@]12CC[C@@H]3c4ccc(O)cc4CC[C@H]3[C@@H]1C[C@@H](O)[C@@H]2O", "note": "[Estriol, estriol]", "values": [
      {"measurement": "MIC", "setting": "[2]; Agrobacterium, read-out: MIC", "result": "> 100", "unit": "µg/mL"},
      {"measurement": "effect on LasR functionality (lux luminescence)", "setting": "[3]", "result": "significant impact"}
    ]},
    {"compound": "CN(C)CCc1ccc(O)cc1", "note": "[Compound 3499, hordenine]", "values": [
      {"measurement": "inhibition at 100 µg/mL", "setting": "[1]; Agrobacterium tumefaciens, read-out: inhibition (%) at 100 µg/ml", "result": 19, "unit": "%"},
      {"measurement": "QSI hit in library screening", "setting": "[1]", "result": "hits"},
      {"measurement": "MIC", "setting": "[2]; Agrobacterium, read-out: MIC", "result": "> 100", "unit": "µg/mL"},
      {"measurement": "effect on LasR functionality (lux luminescence)", "setting": "[3]", "result": "significant impact"}
    ]}
  ]
}
